From ChEMBL document CHEMBL1201862, “PubChem BioAssay data set” (2004)
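96-well plates; 48 h exposure; 5 concentrations. Endpoints by linear interpolation between flanking doses. Not reached: highest tested concentration assigned. At the GI50, growth is halved.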 Active and inactive are the calls of the source. Cut-off read from the data, not from the text of the source: active = GI50 up to about 1.1 µM and inactive = higher.

Assays:
Assay in all cases: NCI tumour cell line growth inhibition, 48 h
NCI-H23 = tested on: NCI-H23
OVCAR-8 = tested on: OVCAR-8
OVCAR-3 = tested on: OVCAR-3
UACC-257 = tested on: UACC-257
HCT-116 = tested on: HCT-116
SF-295 = tested on: SF-295
HL-60 = tested on: HL-60
TK-10 = tested on: TK-10
A549 = tested on: A549
Malme-3M = tested on: Malme-3M
MCF7 = tested on: MCF7
SK-OV-3 = tested on: SK-OV-3
HT-29 = tested on: HT-29
SW-620 = tested on: SW-620
SK-MEL-5 = tested on: SK-MEL-5
SN12C = tested on: SN12C
OVCAR-5 = tested on: OVCAR-5
ACHN = tested on: ACHN
M14 = tested on: M14
MOLT-4 = tested on: MOLT-4
NCI/ADR-RES = tested on: NCI/ADR-RES
HOP-92 = tested on: HOP-92
Hs-578T = tested on: Hs-578T
MDA-MB-435 = tested on: MDA-MB-435
COLO 205 = tested on: COLO 205
KM12 = tested on: KM12
HOP-62 = tested on: HOP-62
SK-MEL-2 = tested on: SK-MEL-2
K562 = tested on: K562
DU-145 = tested on: DU-145
UACC-62 = tested on: UACC-62
SF-539 = tested on: SF-539
SR = tested on: SR
NCI-H460 = tested on: NCI-H460
CCRF-CEM = tested on: CCRF-CEM
CAKI-1 = tested on: CAKI-1
IGROV-1 = tested on: IGROV-1
HCT-15 = tested on: HCT-15
BT-549 = tested on: BT-549
PC-3 = tested on: PC-3
SNB-19 = tested on: SNB-19
786-0 = tested on: 786-0
MDA-MB-231 = tested on: MDA-MB-231
EKVX = tested on: EKVX
UO-31 = tested on: UO-31
RPMI-8226 = tested on: RPMI-8226
NCI-H522 = tested on: NCI-H522
U-251 = tested on: U-251
SF-268 = tested on: SF-268
T47D = tested on: T47D

c1ccc2c(c1)SC1=Nc3sc4ccccc4[n+]3CN12
GI50 (NCI-H23): 6.01 µM (inactive)
GI50 (OVCAR-8): 26.4 µM (inactive)
GI50 (OVCAR-3): 2.88 µM (inactive)
GI50 (UACC-257): 30.7 µM (inactive)
GI50 (HCT-116): 18.5 µM (inactive)
GI50 (SF-295): 29.4 µM (inactive)
GI50 (HL-60): 32.1 µM (inactive)
GI50 (TK-10): 14.8 µM (inactive)
GI50 (A549): 1.04 µM (active)
GI50 (Malme-3M): 10.5 µM (inactive)
GI50 (MCF7): 16.4 µM (inactive)
GI50 (SK-OV-3): 17.2 µM (inactive)
GI50 (HT-29): 12.6 µM (inactive)
GI50 (SW-620): 10.4 µM (inactive)
GI50 (SK-MEL-5): 2.52 µM (inactive)
GI50 (SN12C): 20.8 µM (inactive)
GI50 (OVCAR-5): 15 µM (inactive)
GI50 (ACHN): 32.8 µM (inactive)
GI50 (M14): 22 µM (inactive)
GI50 (MOLT-4): 11.7 µM (inactive)
GI50 (NCI/ADR-RES): 30.9 µM (inactive)
GI50 (HOP-92): 7.53 µM (inactive)
GI50 (Hs-578T): 13.7 µM (inactive)
GI50 (MDA-MB-435): 19.7 µM (inactive)
GI50 (COLO 205): 2.13 µM (inactive)
GI50 (KM12): 2.34 µM (inactive)
GI50 (HOP-62): 21.9 µM (inactive)
GI50 (SK-MEL-2): 11.4 µM (inactive)
GI50 (K562): 6.12 µM (inactive)
GI50 (DU-145): 27.8 µM (inactive)
GI50 (UACC-62): 15.5 µM (inactive)
GI50 (SF-539): 20.5 µM (inactive)
GI50 (SR): 16.9 µM (inactive)
GI50 (NCI-H460): 15.3 µM (inactive)
GI50 (CCRF-CEM): 16.6 µM (inactive)
GI50 (CAKI-1): 14.2 µM (inactive)
GI50 (IGROV-1): 11.8 µM (inactive)
GI50 (HCT-15): 40.2 µM
GI50 (BT-549): 22.8 µM (inactive)
GI50 (PC-3): 24.8 µM (inactive)
GI50 (SNB-19): 19.9 µM (inactive)
GI50 (786-0): 25.9 µM (inactive)
GI50 (MDA-MB-231): 18.3 µM (inactive)
GI50 (EKVX): 2.15 µM (inactive)
GI50 (UO-31): 18.5 µM (inactive)
GI50 (RPMI-8226): 21.8 µM (inactive)
GI50 (NCI-H522): 2.7 µM (inactive)
GI50 (U-251): 3.3 µM (inactive)
GI50 (SF-268): 17.4 µM (inactive)
GI50 (T47D): 18.5 µM (inactive)
